Laboratory results reported in patent US20040147494A1, “Use” (priority 2001, published 2004).
Where “and” joins values, the source holds several entries; their conditions need not be identical. Equal entries are not always repeated. Structures can show the parent of a compound that is named as a salt. Where two headings read alike, the source gives them in different places.

How the values were obtained:
11 β-HSD type 1 = target: T1, 11 β-HSD type 1 (Rattus norvegicus, UniProt P16232); experiment: biochemical; assay type: biochemical; conditions: rat liver cytosol 25 μL, 90 min, 37° C., cortisone (E) to cortisol (F), vs control without inhibitor, means n=2; for inhibition at 10 µM: read-out: % […]→F ± SD, inhibitor 10 μM; for % INHIBITION E→F ± SD: inhibitor 10 μM
T1 construct: Both the kidneys and livers were homogenised on ice in PBS- sucrose buffer; tissue Harlan Olac, Bicester, Oxon, UK (rats); host or cells: rat liver homogenate supernatant (Wistar rat)

11 β-HSD type 2 = target: T2, 11 β-HSD type 2 (Rattus norvegicus, UniProt P50233); experiment: biochemical; conditions: for inhibition at 10 µM: read-out: % […]→E ± SD, inhibitor 10 μM; for inhibition at 10 µM / % INHIBITION F→E ± SD: rat kidney cytosol 150 μL, 60 min, 37° C., cortisol (F) to cortisone (E), vs control without inhibitor, means n=2
T2 construct: Both the kidneys and livers were homogenised on ice in PBS- sucrose buffer; tissue Harlan Olac, Bicester, Oxon, UK (rats); host or cells: rat kidney homogenate supernatant (Wistar rat)
T2 sequence (P50233 1-400): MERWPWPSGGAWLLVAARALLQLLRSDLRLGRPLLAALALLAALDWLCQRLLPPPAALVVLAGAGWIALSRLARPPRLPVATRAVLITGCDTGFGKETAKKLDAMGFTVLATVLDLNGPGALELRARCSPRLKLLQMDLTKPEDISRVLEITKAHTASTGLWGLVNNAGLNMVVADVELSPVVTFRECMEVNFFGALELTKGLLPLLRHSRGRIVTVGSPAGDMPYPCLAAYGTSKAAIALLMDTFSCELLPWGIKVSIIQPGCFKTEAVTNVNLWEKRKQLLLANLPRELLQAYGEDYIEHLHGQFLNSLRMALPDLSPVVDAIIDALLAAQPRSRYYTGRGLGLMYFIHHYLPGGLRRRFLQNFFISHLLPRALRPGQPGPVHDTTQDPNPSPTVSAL
Procedure: Enzymes—Rat livers and rat kidneys were obtained from normal Wistar rats (Harlan Olac, Bicester, Oxon,UK). Both the kidneys and livers were homogenised on ice in PBS- sucrose buffer (1 g/10 ml) using an Ultra-Turrax. After the livers and kidneys were homogenised the homogenate was centrifuged for five minutes at 4000 rpm. The supernatant obtained was removed and stored in glass vials at −20° C. The amount of protein per μl of rat liver and kidney cytosol was determined using the Bradford method.
The same procedure was used for the 11 β-HSD type 2 assay, the conversion F to E, to determine the amount of rat kidney to be used and the incubation time.
In these assays the influence of different inhibitors on the 11 β-HSD activity both in reductive (type 1) and oxidative (type 2) directions were assessed. In the reductive direction E is the substrate and F the product and visa versa in the case of oxidation. The method described here is for the oxidative direction.
The substrate solution contained about 50,000 cpm/ml ^3H—F in PBS-sucrose and 0.5 pM F. 1 ml of the substrate solution was added to each tube, the inhibitors were also added, at a 10 μM concentration, to each tube except to the “control” and “blank” tubes. 150 μL was added to all tubes except to the blanks, this was done to correct for the amount of ^3H[…]. The tubes were incubated for 60 minutes in a mechanically shaken water bath at 37° C. […] After incubation 50 μL of recovery was added to correct for the losses made in the next steps, containing 5000 cpm/50 μL of ^14C-E and 50 μg/50 μL of unlabelled E (to visualise the spot on the TLC-plate). The aqueous mixture was then extracted with 4 ml of ether (2×30 sec cycle, vortex mix). After freezing the aqueous phase, the ether (upper) layer was decanted into smaller tubes and evaporated at 45° C. until completely dry. The residue was then re-dissolved in 6 drops of ether and transferred to a TLC-plate. The TLC-plate was developed in chloroform:methanol (9:1 v/v) solvent system, the TLC-plate ran for about 90 minutes until the solvent front had moved about 18 cm. The position of the product E was visualised under UV-light and cut out from the TLC-plate and put into scintillation vials. Radioactivity was eluted over 5 minutes with 0.5 ml methanol. 0.5 ml of PBS- sucrose and 10 ml of Ecoscint were then added and vortex mixed before counting in the scintillation counter. Before counting the samples, two total activity vials were prepared. These contained 0.5 ml of the substrate solution, 50 μL of the recovery, 0.5 ml of methanol and 10 ml of Ecoscint. These two total activity vials were needed to determine the amount of ^14C-E and ^3H—F added in the beginning to make the calculations.
To look at the percentage of inhibition four different concentrations, 1, 5, 10 and 20 μM, were used. The method for both the rat liver, type 1 the reductive, and rat kidney, type 2 the oxidative, stay the same throughout the entire experiment.
In this experiment the influence of different inhibitors on the conversion E to F and F to E was determined. The reason why inhibition in both directions was examined was to make a comparison between the inhibitors and which type of 11 β-HSD they inhibit more. Thirty-two compounds were screened for their ability to inhibit 11 β-HSD type 1 (E to F) and type 2 (F to E). […] The percent of inhibition was calculated as the percentage of decrease in radio labelled ^3H-E and ^3H—F of product formed, compared with the control activity (the tubes without an inhibitor in it). All the results calculated are means, n=2.

[1] = read-out: % INHIBITION E→F ± SD
[2] = read-out: % INHIBITION F→E ± SD

T1 sequence (P16232 whole entry): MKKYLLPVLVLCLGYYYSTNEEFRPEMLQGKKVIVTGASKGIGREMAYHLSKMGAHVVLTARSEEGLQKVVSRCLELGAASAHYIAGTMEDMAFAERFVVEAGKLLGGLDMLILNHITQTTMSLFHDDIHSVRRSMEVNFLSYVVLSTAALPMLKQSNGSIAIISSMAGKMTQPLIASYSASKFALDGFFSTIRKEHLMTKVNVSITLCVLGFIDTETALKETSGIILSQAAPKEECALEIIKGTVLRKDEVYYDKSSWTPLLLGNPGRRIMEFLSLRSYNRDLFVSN

Compound	inhibition at 10 µM (11 β-HSD type 1; [1])	inhibition at 10 µM (11 β-HSD type 2; [2])	other results
CC(=O)C1CCC2C3CCC4=CC(=O)CC[C@]4(C)C3[C@H](O)C[C@]12C (stereo partly shown) [DG322B, 11-hydroxy-Progesterone]	32.6 ± 3.75%		
CC1(C)C2CC[C@]3(C)C(C(=O)C=C4[C@@H]5C[C@@](C)(C(=O)OCc6ccccc6)CC[C@]5(C)CC[C@]43C)[C@@]2(C)CC[C@@H]1O (stereo partly shown) [STX 348]	63.4 ± 1.45%	94.77 ± 0.17%	
CCOC(=O)[C@@]1(C)CC[C@]2(C)CC[C@]3(C)C(=CC(=O)C4[C@@]5(C)CC[C@H](OCc6ccccc6)C(C)(C)C5CC[C@]43C)[C@@H]2C1 (stereo partly shown) [STX 297]	34.3 ± 8.26%	58.7 ± 10.4%	
Deoxycorticosterone [reference compound]			% INHIBITION F→E ± SD (11 β-HSD type 2; inhibitor 10 μM): 53.3 ± 1.273%; % INHIBITION E→F ± SD (11 β-HSD type 1): 70.2 ± 1.655%
COC(=O)[C@@]1(C)CC[C@]2(C)CC[C@]3(C)C(=CC(=O)C4[C@@]5(C)CCC(=O)C(C)(C)C5CC[C@]43C)[C@@H]2C1 (stereo partly drawn) [STX194, Methyl 3-oxo-18β-glycerrhetate]	65.8 ± 5.69%	75 ± 2.93%	
CC1(C)C2CC[C@]3(C)C(C(=O)C=C4[C@@H]5C[C@@](C)(CO)CC[C@]5(C)CC[C@]43C)[C@@]2(C)CC[C@@H]1O (stereo partly shown) [STX 349]	89.7 ± 4.9%	100 ± 0.49%	
CC1(C(=O)O)CCC2(C)CCC3C(=CC(=O)C4C3(C)CCC3C(C)(C)C(OC(=O)CCC(=O)O)CCC34C)C2C1 (stereo not shown) [Carbenoxalone, Carbenoxalone (disodium salt), reference compound]	52.2 ± 4.8%	100%	
CC1(C)[C@@H](O)CC[C@]2(C)[C@H]3C(=O)C=C4[C@@H]5C[C@@](C)(C(=O)O)CC[C@]5(C)CC[C@@]4(C)[C@]3(C)CC[C@@H]12 [STX352, 3β-Hydroxy-11-oxo-18β,20β-olean-12-en-29-oic acid, reference compound]	85.2 ± 3.69%		
CC1(C)[C@@H](O)CC[C@]2(C)[C@H]3C(=O)C=C4[C@@H]5C[C@@](C)(C(=O)OCCc6ccccc6)CC[C@]5(C)CC[C@@]4(C)[C@]3(C)CC[C@@H]12 [STX197, 3β-hydroxy-11-oxo-18β-glycyrrhetinic acid phenylethyl ester]			% INHIBITION E→F ± SD (11 β-HSD type 1): 53.0 ± 0.935%
CC1(C)C2CC[C@]3(C)[C@H](C(=O)C=C4[C@@H]5C[C@@](C)(C(=O)NCCN6CCOCC6)CC[C@]5(C)CC[C@]43C)[C@@]2(C)CC[C@@H]1O (stereo partly shown) [STX 372, 18-Glycyrrhetinic Acid (2-morpholin-4-yl-ethyl)-amide]	19.4 ± 7.81%	65.8 ± 20.9%	
CC1(C)C2CC[C@]3(C)[C@H](C(=O)C=C4[C@@H]5C[C@@](C)(C(=O)NCc6ccccc6)CC[C@]5(C)CC[C@]43C)[C@@]2(C)CC[C@@H]1O (stereo partly drawn) [STX 366, 18β-Glycyrrhetinic Acid Benzylamide]	85.2 ± 1.09%		
CC(=O)C1CCC2C3CCC4=CC(=O)CC[C@]4(C)C3CC[C@]12C (stereo partly shown) [Progesterone, reference compound]	73%	68.5 ± 0.707%	
CC1(C)C2CC[C@]3(C)C([C@H](O)C=C4[C@@H]5C[C@@](C)(CO)CC[C@]5(C)CC[C@]43C)[C@@]2(C)CC[C@@H]1O (stereo partly shown) [STX 351]	70 ± 6.39%	94.41 ± 0.63%	
C[C@]12CCC(=O)C=C1CCC1C2C(O)C[C@]2(C)C(=O)CCC12 (stereo partly drawn) [11β-OH-Androstenedione, reference compound]	55.2 ± 0.26%	40.9 ± 4.67%	
CC1(C)CC[C@]2(C(=O)O)CC[C@]3(C)C(=CC[C@@H]4[C@@]5(C)CCC(=O)C(C)(C)[C@@H]5CC[C@]43C)[C@@H]2C1 [BLE99006, 3-Oxo-oleanoic acid]			% INHIBITION F→E ± SD (11 β-HSD type 2; inhibitor 10 μM): 45.6 ± 11.030%; % INHIBITION E→F ± SD (11 β-HSD type 1; 10 µM): 22% and 22.2 ± 0.354%
C[C@H](CCC(=O)O)[C@H]1CC[C@H]2[C@@H]3CC[C@@H]4C[C@H](O)CC[C@]4(C)[C@H]3C[C@H](O)[C@]12C [Deoxycholic acid, reference compound]	27.6 ± 7.85%	-1.1 ± 8.27%	stimulation of 11 β-HSD type 2 (F to E) (11 β-HSD type 2; inhibitor 10 μM, rat kidney, printed as stimulation, not inhibition): 1%
CC(=O)[C@H]1CC[C@H]2[C@@H]3CC=C4C[C@@H](O)CC[C@]4(C)[C@H]3CC[C@]12C [Pregnenolone, reference compound]			inhibition at 10 µM (11 β-HSD type 2): 42.1 ± 0.777%; inhibition at 10 µM (11 β-HSD type 1): 49.8 ± 9.36%
CC1(C)C(=O)CC[C@]2(C)C3C(=O)C=C4[C@H]5C[C@@](C)(C(=O)O)CC[C@]5(C)CC[C@@]4(C)[C@]3(C)CC[C@@H]12 (stereo partly drawn) [BLE99005, 3,11-Dioxo-18α-olean-12-en-30-oic acid]	87%		% INHIBITION E→F ± SD (11 β-HSD type 1; 10 µM): 86.9 ± 0.882%
CC(C)(C)OC(=O)[C@@]1(C)CC[C@]2(C)CC[C@]3(C)C(=CC(=O)C4[C@@]5(C)CC[C@H](O)C(C)(C)C5CC[C@]43C)[C@@H]2C1 (stereo partly shown) [STX 298]	50.6 ± 4.43%	22.6 ± 12.9%	
CC1(C)C2CC[C@]3(C)[C@H](C(=O)C=C4[C@@H]5C[C@@](C)(C(=O)NC6CC6)CC[C@]5(C)CC[C@]43C)[C@@]2(C)CC[C@@H]1O (stereo partly drawn) [STX 370, 18β-Glycyrrhetinic Acid Cyclopropylamide]	89.6 ± 1.18%	102.5 ± 0.22%	
CCO[C@H]1CC[C@@]2(C)C(CC[C@]3(C)C2C(=O)C=C2[C@@H]4C[C@@](C)(C(=O)O)CC[C@]4(C)CC[C@]23C)C1(C)C (stereo partly drawn) [STX196a, 3β-Ethoxy-11-oxo-18β-glycerrhetinic acid]	55 ± 0.022%	93.9 ± 1.77%	
C[C@]12CCC(=O)C=C1CC[C@@H]1[C@@H]2[C@@H](O)C[C@@]2(C)[C@H]1CC[C@]2(O)C(=O)CO [Cortisol, reference compound]	49.6 ± 5.87%	54.7 ± 4.24%	
CC1(C)[C@@H](O)CC[C@]2(C)[C@H]3C(=O)C=C4[C@H]5C[C@@](C)(C(=O)O)CC[C@]5(C)CC[C@@]4(C)[C@]3(C)CC[C@@H]12 [STX353, 3β-Hydroxy-11-oxo-18α,20β-olean-12-en-29-oic acid, reference compound]	89 ± 1.49%		
CC1(C)C(=O)CC[C@@]2(C)C1CC[C@]1(C)C2C(=O)C=C2[C@@H]3C[C@@](C)(C(=O)O)CC[C@]3(C)CC[C@]21C (stereo partly drawn) [STX 347, 3-Oxo-18β-glycerrhetinic acid]	89.37 ± 0.1%		
